ChEMBL document CHEMBL3286225, “Novel carboline derivatives as potent antifungal lead compounds: design, synthesis, and biological evaluation” (ACS Med Chem Lett, 2014)
Converted amounts (≈) assume the structure as drawn.

How the values were obtained:
Format in all cases: functional
Aspergillus fumigatus = test: Antifungal activity against Aspergillus fumigatus 07544 after 7 days by serial dilution method; conditions: Aspergillus fumigatus, 07544, 168 h
Nannizzia gypsea = test: Antifungal activity against Microsporum gypseum Cmccfmza after 7 days by serial dilution method; conditions: 168 h
Nakaseomyces glabratus = test: Antifungal activity against Candida glabrata 537 after 24 hrs by serial dilution method; conditions: Nakaseomyces glabratus, 537, 24 h
Cryptococcus neoformans = test: Antifungal activity against Cryptococcus neoformans 32609 after 72 hrs by serial dilution method; conditions: Cryptococcus neoformans, 32609, 72 h
Candida parapsilosis = test: Antifungal activity against Candida parapsilosis ATCC 22019 after 24 hrs by serial dilution method; conditions: Lodderomyces parapsilosis, ATCC 22019, 24 h
Candida albicans = test: Antifungal activity against fluconazole-sensitive Candida albicans SC5314 after 24 hrs by serial dilution method; conditions: SC5314, 24 h
Trichophyton rubrum = test: Antifungal activity against Trichophyton rubrum Cmccftla after 7 days by serial dilution method; conditions: 168 h
Candida tropicalis = test: Antifungal activity against Candida tropicalis after 7 days by serial dilution method; conditions: 168 h
Pichia kudriavzevii = test: Antifungal activity against Candida krusei 0710397 after 7 days by serial dilution method; conditions: Pichia kudriavzevii, 0710397, 168 h

Structure (SMILES) | MIC80 (Aspergillus fumigatus) [µg/mL] | MIC80 (Nannizzia gypsea) [µg/mL] | MIC80 (Nakaseomyces glabratus) [µg/mL] | MIC80 (Cryptococcus neoformans) [µg/mL] | MIC80 (Candida parapsilosis) [µg/mL] | MIC80 (Candida albicans) [µg/mL] | MIC80 (Trichophyton rubrum) [µg/mL] | MIC80 (Candida tropicalis) [µg/mL] | MIC80 (Pichia kudriavzevii) [µg/mL]
CN1CCc2c(c3cc(Cl)ccc3n2C(=O)c2ccccc2Br)C1 | > 64 | > 64 | > 64 | > 64 | 64 (≈ 159 µM) | > 64 | > 64 |  | 
Fc1ccc2c(c1)c1c(n2CCCOc2ccccc2)CCNC1 |  | 4 (≈ 12.3 µM) |  | 8 (≈ 24.7 µM) | > 64 | 8 (≈ 24.7 µM) | 8 (≈ 24.7 µM) | 64 (≈ 197 µM) | 16 (≈ 49.3 µM)
Clc1ccc2c(c1)c1c(n2CCCOc2cccc(Br)c2)CCNC1 |  | 16 (≈ 38.1 µM) |  | 4 (≈ 9.53 µM) | 16 (≈ 38.1 µM) | 8 (≈ 19.1 µM) | 16 (≈ 38.1 µM) | 16 (≈ 38.1 µM) | 4 (≈ 9.53 µM)
Fc1ccc2c(c1)c1c(n2CCCOc2ccccc2Cl)CCNC1 |  | 16 (≈ 44.6 µM) |  | 16 (≈ 44.6 µM) | 64 (≈ 178 µM) | 32 (≈ 89.2 µM) | 32 (≈ 89.2 µM) | 64 (≈ 178 µM) | 64 (≈ 178 µM)
Fc1ccc(OCCCn2c3c(c4cc(F)ccc42)CNCC3)cc1 |  | 8 (≈ 23.4 µM) |  | 8 (≈ 23.4 µM) | 16 (≈ 46.7 µM) | 8 (≈ 23.4 µM) | 8 (≈ 23.4 µM) | 16 (≈ 46.7 µM) | 4 (≈ 11.7 µM)
Fc1ccc2c(c1)c1c(n2CCCOc2ccc(Br)cc2)CCNC1 |  | 2 (≈ 4.96 µM) |  | 4 (≈ 9.92 µM) | 64 (≈ 159 µM) | 8 (≈ 19.8 µM) | 8 (≈ 19.8 µM) | 16 (≈ 39.7 µM) | 4 (≈ 9.92 µM)
CN1CCc2c(c3cc(Cl)cc(Cl)c3n2CCCOc2ccc(Cl)cc2)C1 | > 64 | 16 (≈ 37.8 µM) | > 64 | 16 (≈ 37.8 µM) | > 64 | > 64 | > 64 |  | 
Cc1ccccc1OCCCn1c2c(c3cc(F)ccc31)CNCC2 |  | 4 (≈ 11.8 µM) |  | 4 (≈ 11.8 µM) | 16 (≈ 47.3 µM) | 4 (≈ 11.8 µM) | 4 (≈ 11.8 µM) | 64 (≈ 189 µM) | 16 (≈ 47.3 µM)
CC(C)(C)c1ccc(OCCCn2c3c(c4cc(F)ccc42)CNCC3)cc1 |  | 4 (≈ 10.5 µM) |  | 8 (≈ 21 µM) | 4 (≈ 10.5 µM) | 8 (≈ 21 µM) | 4 (≈ 10.5 µM) | 4 (≈ 10.5 µM) | 16 (≈ 42 µM)
CN1CCc2c(c3cc(C(F)(F)F)ccc3n2CCCOc2ccc(Cl)cc2)C1 | > 64 | 64 (≈ 151 µM) | 64 (≈ 151 µM) | 64 (≈ 151 µM) | > 64 | > 64 | 64 (≈ 151 µM) |  | 
Cc1cccc(OCCCn2c3c(c4cc(F)ccc42)CNCC3)c1 |  | 4 (≈ 11.8 µM) |  | 8 (≈ 23.6 µM) | 4 (≈ 11.8 µM) | 8 (≈ 23.6 µM) | 4 (≈ 11.8 µM) | 16 (≈ 47.3 µM) | 16 (≈ 47.3 µM)
CN1CCc2c(c3cc(Cl)ccc3n2Cc2ccccc2)C1 | 64 (≈ 206 µM) | 16 (≈ 51.5 µM) | 32 (≈ 103 µM) | 32 (≈ 103 µM) | 64 (≈ 206 µM) | 64 (≈ 206 µM) | 16 (≈ 51.5 µM) |  | 
CN1CCc2c(c3cc(Cl)ccc3n2CC#N)C1 | > 64 | 64 (≈ 246 µM) | > 64 | 64 (≈ 246 µM) | > 64 | > 64 | > 64 |  | 
Fc1ccc2c(c1)c1c(n2CCCOc2c(F)cccc2F)CCNC1 |  | 1 (≈ 2.77 µM) |  | 8 (≈ 22.2 µM) | 64 (≈ 178 µM) | 4 (≈ 11.1 µM) | 2 (≈ 5.55 µM) | 16 (≈ 44.4 µM) | 4 (≈ 11.1 µM)
CN1CCc2c(c3cc(Cl)ccc3n2C(=O)c2cccc(Cl)c2)C1 | > 64 | > 64 | 32 (≈ 89.1 µM) | 32 (≈ 89.1 µM) | 64 (≈ 178 µM) | > 64 | > 64 |  | 
Cc1ccc2c(c1)c1c(n2CCCOc2cccc(Br)c2)CCNC1 |  | 16 (≈ 40.1 µM) |  | 16 (≈ 40.1 µM) | 16 (≈ 40.1 µM) | 16 (≈ 40.1 µM) | 16 (≈ 40.1 µM) | 16 (≈ 40.1 µM) | 4 (≈ 10 µM)
CN1CCc2c(c3cc(Cl)ccc3n2C(=O)Cc2ccccc2)C1 | > 64 | > 64 | > 64 | > 64 | > 64 | > 64 | > 64 |  | 
Fc1ccc(OCCCn2c3c(c4cc(Cl)ccc42)CNCC3)cc1 |  | 4 (≈ 11.1 µM) |  | 4 (≈ 11.1 µM) | 4 (≈ 11.1 µM) | 4 (≈ 11.1 µM) | 8 (≈ 22.3 µM) | 4 (≈ 11.1 µM) | 4 (≈ 11.1 µM)
Fc1ccc(OCCCCCn2c3c(c4cc(F)ccc42)CNCC3)cc1 |  | 8 (≈ 21.6 µM) |  | 16 (≈ 43.2 µM) | 16 (≈ 43.2 µM) | 16 (≈ 43.2 µM) | 32 (≈ 86.4 µM) | 4 (≈ 10.8 µM) | 4 (≈ 10.8 µM)
Fc1cc(F)c(OCCCn2c3c(c4cc(F)ccc42)CNCC3)c(F)c1 |  | 4 (≈ 10.6 µM) |  | 4 (≈ 10.6 µM) | 4 (≈ 10.6 µM) | 8 (≈ 21.1 µM) | 4 (≈ 10.6 µM) | 16 (≈ 42.3 µM) | 4 (≈ 10.6 µM)
COc1ccc(OCCCn2c3c(c4cc(F)ccc42)CNCC3)cc1 |  | 4 (≈ 11.3 µM) |  | 8 (≈ 22.6 µM) | > 64 | 8 (≈ 22.6 µM) | 8 (≈ 22.6 µM) | > 64 | 16 (≈ 45.1 µM)
